According to patent publication US5658939A, “Methionine sulfone and S-substituted cysteine sulfone derivatives as enzyme inhibitors” (Corvas International Inc., priority 1995, dated 1997):
Like-named read-outs stand apart in the source and are kept apart here.

Columns and labels:
[1] = biological target: Purified human alpha-thrombin (Homo sapiens, UniProt P00734); assay: in vitro thrombin inhibition assay, IC50 (chromogenic substrate Pefachrome t-PA); format: biochemical; conditions: Table 1; 0.25 nM thrombin, 300 μM substrate, pH 7.5, 30 minute incubation
Procedure: (§1) The ability of the compounds of the present invention to act as inhibitors of thrombin and plasmin catalytic activity was assessed by determining the concentration which inhibited enzyme activity by 50%, (IC50), using the purified human enzymes.
(§2) The buffer used for all assays was HBSA (10 mM HEPES, pH 7.5, 150 mM sodium chloride, 0.1% bovine serum albumin).
(§3) The assay for IC50 determinations was conducted by combining in appropriate wells of a Corning microtiter plate, 50 microliters of HBSA, 50 microliters of the test compound at a specified concentration (covering a broad concentration range) diluted in HBSA (or HBSA alone for Vo (uninhibited velocity) measurement), and 50 microliters of the enzyme diluted in HBSA. Following a 30 minute incubation at ambient temperature, 50 microliters of the substrate at the concentrations specified below, was added to the wells yielding a final total volume of 200 microliters. The initial velocity of chromogenic substrate hydrolysis was measured by the change in absorbance at 405 nm using a Thermo Max® Kinetic Microplate Reader over a 5 minute period in which less than 5% of the added substrate was utilized. The concentration of added inhibitor which caused a 50% decrease in the initial rate of hydrolysis was defined as the IC50 value.
Thrombin catalytic activity was determined using the chromogenic substrate Pefachrome t-PA (CH3 SO2 -D-hexahydrotyrosine-glycyl-L-arginine-p-nitroaniline, obtained from Pentapharm Ltd.). The substrate was made up in deionized water followed by dilution in HBSA prior to the assay in which the final concentration was 300 μM (about 10-times Km). Purified human alpha-thrombin was obtained from Enzyme Research Laboratories, Inc. The enzyme was diluted into HBSA prior to the assay in which the final concentration was 0.25 nM.

[2] = biological target: Purified human plasmin (Homo sapiens, UniProt P00747); assay: in vitro plasmin inhibition assay, IC50 (chromogenic substrate S-2251); format: biochemical; conditions: Table 1; 1.0 nM plasmin, 300 μM substrate, pH 7.5, 30 minute incubation
Chain of Purified human plasmin (P00747 581-810 limits assumed): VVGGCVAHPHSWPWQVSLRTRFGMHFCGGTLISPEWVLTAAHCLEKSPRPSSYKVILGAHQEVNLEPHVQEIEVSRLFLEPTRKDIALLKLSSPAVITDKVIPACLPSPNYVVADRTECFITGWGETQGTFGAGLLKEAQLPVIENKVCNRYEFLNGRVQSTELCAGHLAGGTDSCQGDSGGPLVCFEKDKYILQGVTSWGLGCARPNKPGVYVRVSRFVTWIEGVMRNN
Chain of Purified human plasmin (P00747 97-580 limits assumed): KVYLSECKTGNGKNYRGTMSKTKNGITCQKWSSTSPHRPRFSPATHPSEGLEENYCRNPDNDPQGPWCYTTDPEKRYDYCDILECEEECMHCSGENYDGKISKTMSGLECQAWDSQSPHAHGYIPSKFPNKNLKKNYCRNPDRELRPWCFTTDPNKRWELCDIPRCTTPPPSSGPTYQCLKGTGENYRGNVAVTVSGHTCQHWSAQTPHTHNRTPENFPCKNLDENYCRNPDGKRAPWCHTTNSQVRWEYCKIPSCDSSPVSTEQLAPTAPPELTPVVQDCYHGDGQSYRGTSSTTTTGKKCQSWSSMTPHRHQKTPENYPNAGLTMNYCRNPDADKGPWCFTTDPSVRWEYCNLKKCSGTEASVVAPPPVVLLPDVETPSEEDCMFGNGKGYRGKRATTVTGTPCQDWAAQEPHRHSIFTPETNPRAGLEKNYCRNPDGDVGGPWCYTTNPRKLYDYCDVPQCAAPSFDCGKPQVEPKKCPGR
Procedure: as §1, §2, §3
Plasmin catalytic activity was determined using the chromogenic substrate, S-2251 [D-valyl-L-leucyl-L-lysine-p-nirtoanilide dihydrochloride], which was obtained from Kabi Diagnostica. The substrate was made up in deionized water followed by dilution in HBSA prior to the assay in which the final concentration was 300 μM (about 5-times Km). Purified human plasmin was obtained from Enzyme Research Laboratories, Inc. The enzyme was diluted into HBSA prior to assay in which the final concentration was 1.0 nM.

[3] = tested on: rat carotid artery; assay: Rat model of FeCl3-induced platelet-dependent arterial thrombosis; format: in vivo, rat (Male Harlan Sprague Dawley); conditions: for ED50: read-out: ED50 for thrombus prevention
[4] = biological target: human alpha-thrombin (Homo sapiens, UniProt P00734); assay: Determination of inhibition constant Ki for thrombin (steady state velocities, Pefachrome t-PA); format: biochemical
Procedure: The ability of the compounds of the present invention to act as inhibitors of thrombin catalytic activity was assessed by determining their inhibition constant, Ki.
Enzyme activity was determined using the chromogenic substrate Pefachrome t-PA (CH3 SO2 -D-hexahydrotyrosine-glycyl-L-arginine-p-nitroaniline), obtained from Pentapharm Ltd. The substrate was reconstituted in deionized water prior to use. Purified human alpha-thrombin (3000U/mg specific activity) was obtained from Enzyme Research Laboratories, Inc. The buffer used for all assays was HBSA (10 mM HEPES, pH 7.5, 150 mM sodium chloride, 0.1% bovine serum albumin).
Velocities of chromogenic substrate hydrolysis which occurred over 40 minutes was measured by the change in absorbance at 405 nm using a Thermo Max® Kinetic Microplate Reader.
Ki values were determined for test compounds using the relationships developed by Williams and Morrison, Methods in Enzymology, 63:437 (1979) using steady state velocities (Vs) measured over 40 minutes. The extent of substrate hydrolysis was less than 5% over the course of this assay.
Table 2 below gives the Ki values for selected test compounds.

[5] = tested on: human plasma; assay: activated partial thromboplastin time (APTT) in citrated human plasma; format: biochemical; conditions: control clotting time 28.3 sec
Procedure: (§4) The ex Vivo anticoagulant effects of BzlSO2 -Met[S(O2)]-Pro-Arg-al was determined by measuring the prolongation of the activated partial thromboplastin time (APTT) over a broad concentration range of the added inhibitor, using pooled normal human and rat plasma. Fresh frozen citrated pooled normal human plasma was obtained from George King Biomedical, Overland Park, Kans. Pooled normal rat plasma was prepared from citrated whole blood collected from anesthetized rats using standard procedures. The plasma was flash frozen and stored at -80° C. until use. Measurements APTT was made using the Coag-A-Mate RA4 automated coagulometer (General Diagnostics, Organon Technica, Oklahoma City, Okla.) using the Automated APTT reagent (Organon Technica, Durham, N.C.) as the initiator of clotting according to the manufacturer's instructions.
(§5) The assay was conducted by making a series of dilutions of the test compounds in rapidly thawed plasma followed by adding 200 microliters to the wells of the assay carousel.
(§6) The elevation in APTT due to increasing concentration of compound is presented relative to the control clotting time for rat (19.75 sec) and human (28.3 sec) plasma which is set to a value of 1.0.

[6] = tested on: rat plasma; assay: activated partial thromboplastin time (APTT) in citrated rat plasma; format: biochemical; conditions: control clotting time 19.75 sec
Procedure: as §4, §5, §6

[7] = Table 2, human alpha-thrombin 0.5 nM, steady state velocities over 40 minutes, read-out: Inhibitor Constants (Ki)

Row | SMILES | IC50 [1] | IC50 [2] | other results
1 | CC1CNc2c(cccc2S(=O)(=O)N[C@@H](CCCNC(=N)N)C(=O)N2CC[C@@H](C)C[C@@H]2C(=O)O)C1 (stereo partly drawn) [Argatroban, 2R,4R-4-methyl-1-[N-2-(3-methyl-1,2,3,4-tetrahydro-8-quinolinesulfonyl)-L-argininal]-2-piperdinecarboxylic acid, reference compound] |  |  | ED50 ([3]; dose that prevents the incidence of complete thrombotic occlusion in 50% of animals tested, FeCl3 model, rat): 3.8 mg/kg
2 | CCCCS(=O)(=O)N[C@@H](CCS(C)(=O)=O)C(=O)N1CCC[C@H]1C(=O)N[C@H](C=O)CCCNC(=N)N [Example 11, N-(1-butanesulfonyl)-L-methioninesulfone-L-proline-L-argininal] | 1.6 nM | 199 nM | 
3 | CS(=O)(=O)CC[C@H](NS(=O)(=O)c1ccc2ccccc2c1)C(=O)N1CCC[C@H]1C(=O)N[C@H](C=O)CCCNC(=N)N [Example 24, N-(2-naphthylenesulfonyl)-L-methionine sulfone-L-proline-L-argininal] | 0.58 nM | 35 nM | Ki [4, 7]: 0.135 nM
4 | CS(=O)(=O)CC[C@H](NS(=O)(=O)Cc1ccccc1)C(=O)N1CCC[C@H]1C(=O)N[C@H](C=O)CCCNC(=N)N [Example 27, N-benzylsulfonyl-L-methionine sulfone-L-proline-L-argininal] | 1 nM | 86 nM | prolongation of APTT [5]: prolonged the APTT in a dose dependent manner; Ki [4, 7]: 1.06 nM; Ki ([4]; Table 4, determined using human alphathrombin (footnote a), read-out: Ki): 1.06 nM; incidence of thrombotic occlusion (in words) ([3]; FeCl3 model, rat, over all doses of Table 3): reduction in the incidence of thrombotic occlusion; ED50 ([3]; Rattus norvegicus): 0.7 mg/kg; prolongation of APTT [6]: prolonged the APTT in a dose dependent manner
5 | CCCC(CCC)C(=O)N[C@@H](CCS(C)(=O)=O)C(=O)N1CCC[C@H]1C(=O)N[C@H](C=O)CCCNC(=N)N [Example 33, N-(2-propylpentanoyl)-L-methionine sulfone-L-proline-L-argininal] | 5.5 nM | 500 nM | Ki [4, 7]: 4 nM
6 | CS(=O)(=O)C[C@H](NS(=O)(=O)c1ccc2ccccc2c1)C(=O)N1CCC[C@H]1C(=O)N[C@H](C=O)CCCNC(=N)N [Example 46, N-(2-naphthalenesulfonyl)-S-methyl-L-cysteine sulfone-L-proline-L-argininal] | 1.4 nM | > 250 nM | 
7 | CS(=O)(=O)C[C@H](NS(=O)(=O)c1cccc2ccccc12)C(=O)N1CCC[C@H]1C(=O)N[C@H](C=O)CCCNC(=N)N [Example 49, N-(1-naphthalenesulfonyl)-S-methyl-L-cysteine sulfone-L-proline-L-argininal] | 3.1 nM | 250 nM | 
8 | CCCC(CCC)C(=O)N[C@@H](CS(=O)(=O)CC(=O)O)C(=O)N1CCC[C@H]1C(=O)N[C@H](C=O)CCCNC(=N)N [Example 59, N-(2-propylpentanoyl)-S-(carboxymethyl)-L-cysteine sulfone-L-proline-L-argininal] | 1.6 nM | 220 nM | 
9 | COC(=O)CS(=O)(=O)C[C@H](NS(=O)(=O)c1ccc2ccccc2c1)C(=O)N1CCC[C@H]1C(=O)N[C@H](C=O)CCCNC(=N)N [Example 69, N-(2-naphthylenesulfonyl)-S-(methyl acetate)-L-cysteine sulfone-L-proline-L-argininal] | 0.56 nM | 61 nM | 
10 | CCCC(CCC)C(=O)N[C@@H](CS(=O)(=O)Cc1ccc(C(=O)O)cc1)C(=O)N1CCC[C@H]1C(=O)N[C@H](C=O)CCCNC(=N)N [Example 144, N-2-propylpentylamide-L-cysteine-S-sulfone (p-toluic acid) -L-proline-arginal aldehyde] | 0.742 nM | 388 nM | 
11 | CC1(C)[C@@H]2CC[C@@]1(CS(=O)(=O)N[C@@H](CCS(C)(=O)=O)C(=O)N1CCC[C@H]1C(=O)N[C@H](C=O)CCCNC(=N)N)C(=O)C2 [d-Camphor--SO2 --Met[S(O2)]--Pro--Arg-al] | 2.6 nM | 30 nM | 

Now from value to molecule, other results behind:

Row | IC50 [1] | IC50 [2] | SMILES | other results
12 | 3 nM | 110 nM | CCCCS(=O)(=O)N[C@@H](CS(=O)(=O)CC(=O)O)C(=O)N1CCC[C@H]1C(=O)N[C@H](C=O)CCCNC(=N)N | 
13 | 13 nM | 490 nM | N=C(N)NCCC[C@@H](C=O)NC(=O)[C@@H]1CCCN1C(=O)[C@H](CSCC(=O)O)NS(=O)(=O)Cc1ccccc1 | 
14 | 0.81 nM | 200 nM | COC(=O)c1ccccc1S(=O)(=O)N[C@@H](CCS(C)(=O)=O)C(=O)N1CCC[C@H]1C(=O)N[C@H](C=O)CCCNC(=N)N [2-CMPhSO2 --Met[S(O2)]--Pro--Arg-al] | 
15 | 146 nM | 2600 nM | CS(=O)(=O)CC[C@H](NS(=O)(=O)NC1CCCCC1)C(=O)N1CCC[C@H]1C(=O)N[C@H](C=O)CCCNC(=N)N [ChxNH--SO2 --Met[S(O2)]--Pro--Arg-al] | 
16 | 0.66 nM | 30 nM | CS(=O)(=O)CC[C@H](NS(=O)(=O)CC1CCCCC1)C(=O)N1CCC[C@H]1C(=O)N[C@H](C=O)CCCNC(=N)N [Example 18, N-cyclohexylmethanesulfonyl-L-methionine sulfone-L-proline-L-argininal] | 
17 | 0.78 nM | > 25 nM | CS(=O)(=O)CC[C@H](NS(=O)(=O)c1cccc2ccccc12)C(=O)N1CCC[C@H]1C(=O)N[C@H](C=O)CCCNC(=N)N [Example 21, N-(1-naphthylenesulfonyl)-L-methionine sulfone-L-proline-L-argininal] | 
18 | 1.8 nM | > 250 nM | CCCCS(=O)(=O)N[C@@H](CS(C)(=O)=O)C(=O)N1CCC[C@H]1C(=O)N[C@H](C=O)CCCNC(=N)N [Example 40, N-(1-butanesulfonyl)-S-methyl-L-cysteine Sulfone-L-proline-L-argininal] | 
19 | 5.1 nM | 2800 nM | CCCC(CCC)C(=O)N[C@@H](CS(C)(=O)=O)C(=O)N1CCC[C@H]1C(=O)N[C@H](C=O)CCCNC(=N)N [Example 43, N-(2-propylpentanoyl)-S-methyl-L-cysteine sulfone-L-proline-L-argininal] | 
20 | 13 nM | 490 nM | N=C(N)NCCC[C@@H](C=O)NC(=O)[C@@H]1CCCN1C(=O)[C@H](CS(=O)(=O)CC(=O)O)NS(=O)(=O)Cc1ccccc1 [Example 56, N-benzylsulfonyl-S-(carboxymethyl)-L-cysteine sulfone-L-proline-L-argininal] | 
21 | 1.7 nM | 250 to 2500 nM | N=C(N)NCCC[C@@H](C=O)NC(=O)[C@@H]1CCCN1C(=O)[C@H](CS(=O)(=O)Cc1ccc(C(=O)O)cc1)NS(=O)(=O)Cc1ccccc1 [Example 139, N-benzylsulfonamide-L-cysteine-S-sulfone-(p-toluic acid) -L-proline-argininal aldehyde] | 
